# Measurements published in ChEMBL document CHEMBL1201862, “PubChem BioAssay data set” (2004).
#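 Cultured in 96-well plates, cells were exposed to test compound for 48 hours across five concentrations. GI50 is the concentration that inhibits growth by half.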 Activity calls are given as the source filed them. Rule as the data show it: active = GI50 up to about 1.1 µM and inactive = higher.
# Key:
# Assay in all cases: growth of human tumour cells (NCI), 48 h
# [1] = system: PC-3
# [2] = system: RXF 393
# [3] = system: MDA-MB-435
# [4] = system: Malme-3M
# [5] = system: OVCAR-3
# [6] = system: OVCAR-4
# [7] = system: SK-MEL-5
# [8] = system: RPMI-8226
# [9] = system: HCT-15
# [10] = system: SN12C
# [11] = system: COLO 205
# [12] = system: NCI-H226
# [13] = system: SNB-75
# [14] = system: HT-29
# [15] = system: SNB-19
# [16] = system: SK-OV-3
# [17] = system: MDA-MB-231
# [18] = system: UACC-257
# [19] = system: K562
# [20] = system: UACC-62
# [21] = system: Hs-578T
# [22] = system: BT-549
# [23] = system: HCT-116
# [24] = system: OVCAR-8
# [25] = system: SF-539
# [26] = system: SK-MEL-28
# [27] = system: SF-295
# [28] = system: SR
# [29] = system: MDA-N
# [30] = system: SW-620
# [31] = system: NCI/ADR-RES
# [32] = system: SF-268
# [33] = system: SK-MEL-2
# [34] = system: NCI-H522
# [35] = system: NCI-H23
# [36] = system: 786-0
# [37] = system: M14
# [38] = system: OVCAR-5
# [39] = system: HOP-62
# [40] = system: UO-31
# [41] = system: DU-145
# [42] = system: TK-10
# [43] = system: CAKI-1
# [44] = system: T47D
# [45] = system: EKVX
# [46] = system: LOX IMVI
# [47] = system: ACHN
# [48] = system: KM12
# [49] = system: U-251
# [50] = system: IGROV-1
# [51] = system: HOP-92
# [52] = system: A498
# [53] = system: MCF7
# [54] = system: MOLT-4
# [55] = system: HL-60
# [56] = system: A549
# [57] = system: NCI-H460
# [58] = system: CCRF-CEM
smiles,measurement,setting,value
CC(C)(C)c1cc(-c2ccc(-c3cc(C(C)(C)C)c(O)c(C(C)(C)C)c3)cc2)cc(C(C)(C)C)c1O,GI50,[1],> 100 µM (inactive)
same,GI50,[2],> 100 µM (inactive)
same,GI50,[3],> 100 µM (inactive)
same,GI50,[4],> 100 µM (inactive)
same,GI50,[5],> 100 µM (inactive)
same,GI50,[6],> 100 µM (inactive)
same,GI50,[7],> 100 µM (inactive)
same,GI50,[8],> 100 µM (inactive)
same,GI50,[9],> 100 µM
same,GI50,[10],> 100 µM (inactive)
same,GI50,[11],> 100 µM (inactive)
same,GI50,[12],> 100 µM (inactive)
same,GI50,[13],> 100 µM (inactive)
same,GI50,[14],> 100 µM (inactive)
same,GI50,[15],> 100 µM (inactive)
same,GI50,[16],> 100 µM (inactive)
same,GI50,[17],> 100 µM (inactive)
same,GI50,[18],> 100 µM (inactive)
same,GI50,[19],> 100 µM (inactive)
same,GI50,[20],> 100 µM (inactive)
same,GI50,[21],> 10 µM (inactive)
same,GI50,[22],> 100 µM (inactive)
same,GI50,[23],> 100 µM (inactive)
same,GI50,[24],> 100 µM (inactive)
same,GI50,[25],> 100 µM (inactive)
same,GI50,[26],> 100 µM (inactive)
same,GI50,[27],> 100 µM (inactive)
same,GI50,[28],> 100 µM (inactive)
same,GI50,[29],> 100 µM (inactive)
same,GI50,[30],> 100 µM (inactive)
same,GI50,[31],> 100 µM (inactive)
same,GI50,[32],> 100 µM (inactive)
same,GI50,[33],> 100 µM (inactive)
same,GI50,[34],> 100 µM (inactive)
same,GI50,[35],> 100 µM (inactive)
same,GI50,[36],> 100 µM (inactive)
same,GI50,[37],> 100 µM (inactive)
same,GI50,[38],> 100 µM (inactive)
same,GI50,[39],> 100 µM (inactive)
same,GI50,[40],> 100 µM (inactive)
same,GI50,[41],> 100 µM (inactive)
same,GI50,[42],> 100 µM (inactive)
same,GI50,[43],> 100 µM (inactive)
same,GI50,[44],> 100 µM (inactive)
same,GI50,[45],> 100 µM (inactive)
same,GI50,[46],> 100 µM (inactive)
same,GI50,[47],> 100 µM (inactive)
same,GI50,[48],> 100 µM (inactive)
same,GI50,[49],> 100 µM (inactive)
same,GI50,[50],> 100 µM (inactive)
same,GI50,[51],> 100 µM (inactive)
same,GI50,[52],> 100 µM (inactive)
same,GI50,[53],> 100 µM (inactive)
same,GI50,[54],> 100 µM (inactive)
same,GI50,[55],> 100 µM (inactive)
same,GI50,[56],> 100 µM (inactive)
O=S(=O)(O)c1ccc2c(/N=N/c3c(O)ccc4ccccc34)cccc2c1,GI50,[1],> 100 µM (inactive)
same,GI50,[2],> 100 µM (inactive)
same,GI50,[3],> 100 µM (inactive)
same,GI50,[4],> 100 µM (inactive)
same,GI50,[5],88.9 µM (inactive)
same,GI50,[6],> 100 µM (inactive)
same,GI50,[7],> 100 µM (inactive)
same,GI50,[8],> 100 µM (inactive)
same,GI50,[9],> 100 µM
same,GI50,[10],> 100 µM (inactive)
same,GI50,[11],> 100 µM (inactive)
same,GI50,[12],> 100 µM (inactive)
same,GI50,[13],> 100 µM (inactive)
same,GI50,[14],> 100 µM (inactive)
same,GI50,[15],> 100 µM (inactive)
same,GI50,[16],> 100 µM (inactive)
same,GI50,[17],> 100 µM (inactive)
same,GI50,[18],> 100 µM (inactive)
same,GI50,[19],34.3 µM (inactive)
same,GI50,[20],> 100 µM (inactive)
same,GI50,[21],> 100 µM (inactive)
same,GI50,[22],> 100 µM (inactive)
same,GI50,[23],> 100 µM (inactive)
same,GI50,[24],> 100 µM (inactive)
same,GI50,[25],> 100 µM (inactive)
same,GI50,[26],> 100 µM (inactive)
same,GI50,[27],> 100 µM (inactive)
same,GI50,[28],> 100 µM (inactive)
same,GI50,[29],> 100 µM (inactive)
same,GI50,[30],> 100 µM (inactive)
same,GI50,[31],> 100 µM (inactive)
same,GI50,[32],> 100 µM (inactive)
same,GI50,[33],> 100 µM (inactive)
same,GI50,[34],> 100 µM (inactive)
same,GI50,[35],> 100 µM (inactive)
same,GI50,[36],> 100 µM (inactive)
same,GI50,[37],> 100 µM (inactive)
same,GI50,[38],> 100 µM (inactive)
same,GI50,[39],> 100 µM (inactive)
same,GI50,[40],> 100 µM (inactive)
same,GI50,[41],> 100 µM (inactive)
same,GI50,[42],> 100 µM (inactive)
same,GI50,[43],> 100 µM (inactive)
same,GI50,[44],> 100 µM (inactive)
same,GI50,[45],61.5 µM (inactive)
same,GI50,[46],> 100 µM (inactive)
same,GI50,[47],> 100 µM (inactive)
same,GI50,[48],> 100 µM (inactive)
same,GI50,[49],> 100 µM (inactive)
same,GI50,[50],65.8 µM (inactive)
same,GI50,[51],> 100 µM (inactive)
same,GI50,[52],> 100 µM (inactive)
same,GI50,[53],> 100 µM (inactive)
same,GI50,[55],> 100 µM (inactive)
same,GI50,[57],> 100 µM (inactive)
same,GI50,[56],> 100 µM (inactive)
same,GI50,[58],70.6 µM (inactive)
